Measured values as given in US20070053950A1, “Composition of polymer microcapsules of biocide for coating material” (priority 2005, published 2007).

How the values were obtained:
Assay type in all cases: cell-based
Chlorella fusca = test: Filter paper bioassay, antialgal activity of biocide dispersed in paint; settings: around 5 wt % Irgarol in paint; taken after 0, 15 and 30 days of dispersion; even after 100 days
From the text: (§1) W. et.al., Amer. J. Clin. Pathol., 45 (1966) p 493-496 and Thomberry, H. H. Phytopathology 40 (1950) p 419-420). […] The antifungal activity of all the composition samples is indicated by zone of inhibition that is developed around the filter paper discs against the vegetative growth after the spore germination. […] Similar type of results are obtained when microcapsules stored in paint for 12 days and 30 days are taken for such biocidal analysis. The antialgal activity of microencapsulated Irgarol and unencapsulated Irgarol against algal strains (Oscillatoria tenius and Chlorella fusca) is assessed by filter paper bioassay by method as described above for fungal activity. Unencpasulated Irgarol and microcapsules of Irgarol are dispersed in paint such that the concentration of Irgarol is around 5 wt % based on weight of paint and taken for analysis after 0 days, 15 days and 30 days of dispersion period.

Oscillatoria tenius = test: as above; settings: around 5 wt % Irgarol in paint; taken after 0, 15 and 30 days of dispersion; even after 100 days
From the text: as §1

[1] = system: fungal strain Aspergillus niger (NRRL337); test: Filter paper bioassay, antifungal activity of biocide dispersed in paint (zone of inhibition); settings: sample taken after 0 days of dispersion
Experimental: Microcapsules of Zinc Pyrithione and unencpasulated Zinc Pyrithione are dispersed in paint such that the concentration of Zinc Pyrithione is around 5 wt % based on weight of paint and taken for analysis after 0 days, 12 days and 30 days of dispersion period. The antifungal activity of all the composition samples is indicated by zone of inhibition that is developed around the filter paper discs against the vegetative growth after the spore germination. The zone of inhibition is measured after 2 days and 100 days after the day on which samples are taken for filter paper bioassay.

Compound | inhibitory activity against algal strain (Chlorella fusca) | inhibitory activity against algal strain (Oscillatoria tenius) | Zone of inhibition (mm) (after 2 days) A ([1]; around 5 wt % Zinc Pyrithione in paint, zone measured after 2 days) | Zone of inhibition (mm) (after 100 days) B ([1]; around 5 wt % Zinc Pyrithione in paint, zone measured after 100 days) | % Reduction in inhibition zone C = [(A − B) × 100]/A ([1]; around 5 wt % biocide in paint, from 2 days to 100 days)
CSc1nc(NC2CC2)nc(NC(C)(C)C)n1 [unencapsulated irgarol, Irgarol] | very strong inhibitory activity | very strong inhibitory activity | – | – | –
Zinc Pyrithione [Unencapsulated Zinc Pyrithione] | – | – | 41 mm | 32 mm | 21.9%
